Assay results taken from patent publication US20140163061A1, “Methods For Reducing Blood Pressure” (FibroGen, Inc., priority 2008, published 2014).

Tested on: human subjects with chronic kidney disease
Experiment: Blood pressure in human CKD subjects over a four week period, weekly readings, Example 6
Type: in vivo
Method: Hypertension is a common condition in patients with chronic kidney disease. (Agarwal et al. (2005) Hypertension 46:514-520.) The effect of a compound of the present invention on blood pressure in anemic and non-anemic human subjects with advanced stage chronic kidney disease was examined. All study subjects had chronic kidney disease (CKD), defined as having a glomerular filtration rate (GFR)<59 ml/min. Some of these CKD subjects also had anemia, defined as having hemoglobin (Hb) levels<11 g/dL. Subjects were orally administered compound A or a placebo two or three times per week for four weeks. Blood pressure readings (i.e. systolic, diastolic, and mean arterial pressure) were taken at various times with a sphygmomanometer according to standard assessments. In another series of experiments, the effects of a medicament of the present invention on blood pressure in anemic and non-anemic subjects with chronic kidney disease were determined over a four week period. All subjects were orally administered compound A or a placebo two or three-times per week for four weeks and blood pressure readings were taken weekly. Table 6, Table 7, and Table 8 below show weekly changes in mean arterial pressure (MAP), systolic blood pressure (SBP), and diastolic blood pressure (DBP) following oral administration of compound A to human CKD subjects.

## Cc1nc(C(=O)NCC(=O)O)c(O)c2ccc(Oc3ccccc3)cc12 [A, [(4-hydroxy-1-methyl-7-phenoxy-isoquinoline-3-carbonyl)-amino]-acetic acid]
All Subjects, Week 1
  Mean change from Baseline Diastolic BP (mmHg): −3.66 mmHg
  Mean change from Baseline MAP (mmHg): −4.28 mmHg
  Mean change from Baseline Systolic BP (mmHg): −5.45 mmHg
All Subjects, Week 2
  Mean change from Baseline Diastolic BP (mmHg): −3.37 mmHg
  Mean change from Baseline MAP (mmHg): −5.44 mmHg
  Mean change from Baseline Systolic BP (mmHg): −9.47 mmHg
All Subjects, Week 3
  Mean change from Baseline Diastolic BP (mmHg): −1.53 mmHg
  Mean change from Baseline MAP (mmHg): −4.03 mmHg
  Mean change from Baseline Systolic BP (mmHg): −8.97 mmHg
All Subjects, Week 4
  Mean change from Baseline Diastolic BP (mmHg): −1.54 mmHg
  Mean change from Baseline MAP (mmHg): −2.85 mmHg
  Mean change from Baseline Systolic BP (mmHg): −5.54 mmHg
Anemic, Week 1
  Mean change from Baseline Diastolic BP (mmHg): −4.43 mmHg
  Mean change from Baseline MAP (mmHg): −4.57 mmHg
  Mean change from Baseline Systolic BP (mmHg): −4.80 mmHg
Anemic, Week 2
  Mean change from Baseline Diastolic BP (mmHg): −3.77 mmHg
  Mean change from Baseline MAP (mmHg): −6.13 mmHg
  Mean change from Baseline Systolic BP (mmHg): −10.77 mmHg
Anemic, Week 3
  Mean change from Baseline Diastolic BP (mmHg): −2.50 mmHg
  Mean change from Baseline MAP (mmHg): −5.47 mmHg
  Mean change from Baseline Systolic BP (mmHg): −11.40 mmHg
Anemic, Week 4
  Mean change from Baseline Diastolic BP (mmHg): −1.13 mmHg
  Mean change from Baseline MAP (mmHg): −3.08 mmHg
  Mean change from Baseline Systolic BP (mmHg): −7.25 mmHg
Non-Anemic, Week 1
  Mean change from Baseline Diastolic BP (mmHg): −2.00 mmHg
  Mean change from Baseline MAP (mmHg): −3.67 mmHg
  Mean change from Baseline Systolic BP (mmHg): −6.86 mmHg
Non-Anemic, Week 2
  Mean change from Baseline Diastolic BP (mmHg): −2.50 mmHg
  Mean change from Baseline MAP (mmHg): −3.95 mmHg
  Mean change from Baseline Systolic BP (mmHg): −6.67 mmHg
Non-Anemic, Week 3
  Mean change from Baseline Diastolic BP (mmHg): 0.40 mmHg
  Mean change from Baseline MAP (mmHg): −1.14 mmHg
  Mean change from Baseline Systolic BP (mmHg): −4.10 mmHg
Non-Anemic, Week 4
  Mean change from Baseline Diastolic BP (mmHg): −2.20 mmHg
  Mean change from Baseline MAP (mmHg): −2.48 mmHg
  Mean change from Baseline Systolic BP (mmHg): −2.80 mmHg
